Data set [1] concerns the target human rec ACSS2 (Homo sapiens (Human), UniProt Q9NR19). The data set is described as follows: Biochemical activity ACSS2 assay (AMP-Glo). The note with it: human recombinant ACSS2, AMP-Glo, 180 min at 37° C. An excerpt: Biochemical Activity ACSS2 Assay (IC50 ACSS2 Biochemical)
The biochemical activity assay for ACSS2 is based on the detection of released AMP by AMP-Glo™ Assay kit (Promega, Madison). The assay is run in three steps: the enzymatic reaction in which human rec ACSS2 activates acetate with ATP and Coenzyme A as cosubstrates to acetyl-CoA thereby releasing AMP and the detection reaction of AMP by AMP Glo assay in which after the destruction of the residual ATP with AMP Glo reagent 1 produced AMP is converted to ATP that is measured in a luciferase assay system (detection reagent). The ACSS2 activity correlates with the detected luminescence signal.
The assay was performed in Perkin Elmer 384 well white Proxiplates in a total volume of 8 μl.
1 nM (fc)C-term myc tagged ACSS2 (human, recombinant, Origene, Rockville, US) and a mixture of 100 μM (fc) ATP, 100 μM (fc) Coenzyme A and 500 μM (fc) sodium acetate were incubated in a total volume of 5 μl (50 mM Hepes, 1 mM Mg-chloride, 150 mM NaCl, 1 mM DTT, 0.01% (w/v) BSA, 0.3% DMSO, pH 7.5) in the absence or presence of the test compound (10 dilution concentrations, start conc 30 μM) for 180 min at 37° C. The reaction was stopped and residual ATP destroyed by the addition of 1 μl AMP Glo reagent solution (Promega, Madison, US). After 1h incubation at room temperature 2 μl of AMP Glo detection reagent was added and the assay was incubated for 0.75 hr at room temperature. The luminescence signal was measured with an Envision multimode reader (Perkin Elmer LAS Germany GmbH) at 700 nm in luminescence mode. The full value used was the inhibitor-free reaction. The pharmacological zero value was generated by addition of ACSS2 inhibitor (Ac-CoA Synthase Inhibitor—CAS 508186-14-9-Calbiochem) in a final concentration of 5 μM. The inhibitory values (IC50) were determined using the program Assay Analyzer® from GeneData.

For data set [2], the system named is CHO-K1 cells. The data set is described as follows: Micronucleus assay (MNT) in vitro. In kind it is cell-based. The note with it: 24 hrs treatment, 0.2 μM to 100 μM. Set-up: key: A: negative, putative negative (micronuclei detected beyond threshold of 60% cyctotoxicity); B: positive. As for the experimental part:
The in vitro MNT assay is performed in CHO-K1 cells due to their stable and well-characterized karyotype, high sensitivity and suitability for a high content imaging approach. They have a basal spontaneous micronucleus frequency of 3-4%.
24 hrs after plating CHO-K1 cells are treated with test compounds for 24 hrs (in duplicates; fixed concentration ranges from 0.2 μM to 100 μM in 2-fold dilution steps). After a medium change cells are incubated for 24 hrs with Cytochalasin B to block cytokinesis and are then fixed and nuclei/micronuclei visualized with a DNA stain. Images are acquired with the Molecular Devices high content imagers IXU or IXM and are analyzed with the dedicated MetaXpress software micronucleus module. Criteria for scoring of micronuclei (MN) are the following: • diameter of the MN should be less than ⅓ of the main nucleus • MN should be separated from or marginally overlap with main nucleus (=no blebs) • MN should have similar staining as the main nucleus
At least 1000 binucleated cells are evaluated per treatment replicate. Mitomycin C is used as reference stimulator of micronucleus formation. Cytotoxicity is evaluated in parallel and defined by comparing total nuclei count in compound-treated samples to neutral control samples treated with vehicle only (1% DMSO) (100% cytotoxicity means all cells are dead or lost).
A test compound is regarded as POSITIVE if generation of micronuclei and exhibition of less than 60% cytotoxicity at the same concentration can be observed.
Compounds are scored only in the soluble concentration range.
Experimental data of the compounds shown in Table 1 in the MNT assay are shown in Table 2 below and classified in the following groups: […]

The target in data set [3] is ACSS2 (Homo sapiens (Human), UniProt Q9NR19). Kind of data set: Cellular assay of 14C acetate incorporation into histones (IC50 ACSS2 cellular histone). The class given is cell-based. As to conditions: HCT-15 cells. The text has this: Cellular Assay of ^14C Acetate Incorporation into Histones (IC50 ACSS2 Cellular Histone)
This protocol describes a cellular assay capable to quantify endogenous histone acetylation activity in the human HCT-15 cancer cell line following the incorporation of extracellularly administered radiolabeled ^14C acetate with a scintillation based read out on acid extracted histones.
HCT-15 cells are trypsinized, washed and suspended in DMEM culture medium supplemented with penicillin/streptomycin (100 U/mL), sodium pyruvate (1 mM), and 10% FBS
Compounds serial dilutions are prepared in 96-well V-bottom microplate from 10 mM stock solutions in DMSO. From these dilutions 0.5 μl are transferred to a fresh plate including pure DMSO as negative control. The dilutions are prepared such, that the final concentration in the assay is 1/400 of the concentration in the serial dilution. The final DMSO concentration in the assay is 0.25%.
The cell suspension is seeded at densities of 2×10^5 cells per 170 μl into individual wells of a 96 well plate each containing 0.5 μl aliquots of compound serial dilutions and are kept for 1 h in a cell incubator. To each well 30 μL of a mixture containing 0.5 mCi/mL of ^14C-acetate with full medium are added. Then, the wells are incubated for 3 hrs in the cell incubator.
Further steps of the procedure should be conducted on ice or instrumentations precooled to 4° C. Cells are sedimented in the 96-well V-bottom microplate by centrifugation (Eppendorf 5804 R) at 1200 rpm for 5 min. The supernatant is removed and the cells are washed twice with 200 μL of PBS-NaB (5 mM sodium butyrate) buffer by iterative resuspension and centrifugation. Finally, the cells are resuspended in 50 μL of TEB (PBS-NaB+0.5% Triton X-100) and left on ice for 10 minutes. After centrifugation at 2300 rpm for 10 minutes at 4° C. the supernatant is removed, the remaining pellet is suspended in 50 μL of 0.2M HCl and incubated over night at 4° C. After incubation the well plate is shaken for 2 minutes in a MTP plate shaker set to 1200 rpm and then centrifuged at 3700 rpm for 10 mins. The lysate is carefully aspirated (˜43 μL) and transferred into a white MTP plate (Greiner bio-one 65509). 90 μL of Ultima Gold XR scintillation cocktail are added and the plates are sealed with a transparent cover tape before mixing vigorously using plate shaker set to 1200 rpm. Radioactivity from ^14C incorporation in the wells is measured as CPM count in a MicroBeta Trilux luminescence counter.

Structures are written as SMILES.

Sequence of human rec ACSS2 (Q9NR19 whole entry): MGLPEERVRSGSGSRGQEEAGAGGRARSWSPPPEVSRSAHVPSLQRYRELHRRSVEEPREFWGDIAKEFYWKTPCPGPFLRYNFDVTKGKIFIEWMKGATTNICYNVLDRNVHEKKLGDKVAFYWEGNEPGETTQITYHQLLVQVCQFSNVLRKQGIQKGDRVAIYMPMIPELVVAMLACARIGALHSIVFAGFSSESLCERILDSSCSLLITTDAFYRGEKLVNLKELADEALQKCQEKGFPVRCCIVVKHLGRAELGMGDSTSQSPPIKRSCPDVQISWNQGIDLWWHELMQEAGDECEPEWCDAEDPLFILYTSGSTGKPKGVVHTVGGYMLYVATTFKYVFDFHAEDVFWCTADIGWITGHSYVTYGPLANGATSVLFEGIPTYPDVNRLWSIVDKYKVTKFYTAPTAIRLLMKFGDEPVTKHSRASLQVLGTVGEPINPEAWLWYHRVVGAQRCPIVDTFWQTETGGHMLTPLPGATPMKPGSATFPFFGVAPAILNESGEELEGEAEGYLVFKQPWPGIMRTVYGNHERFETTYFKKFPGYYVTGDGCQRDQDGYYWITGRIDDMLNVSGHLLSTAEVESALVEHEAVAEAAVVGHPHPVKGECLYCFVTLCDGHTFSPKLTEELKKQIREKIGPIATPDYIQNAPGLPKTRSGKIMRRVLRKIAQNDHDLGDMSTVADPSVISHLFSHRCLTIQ
Sequence of ACSS2 (Q9NR19 whole entry): as above

For the compound `CCn1c(C(O)(c2ccccc2)c2ccc(OC(F)F)cc2F)nc2nc(OC)c(-c3nnn[nH]3)cc21` (racemic) [Compound 47, [4-(difluoromethoxy)-2-fluorophenyl][1-ethyl-5-methoxy-6-(1H-1,2,3,4-tetrazol-5-yl)-1H-imidazo[4,5-b]pyridin-2-yl]phenylmethanol], the concentration for half-maximal inhibition (IC50) in data set [1] and in data set [3] was 1 to 10 nM each time. In addition, the MNT entry in data set [2] was “A”.

`CCn1c(C(O)(c2ccccc2)c2ccccc2C)nc2nc(OC)c(-c3nnn[nH]3)cc21` (racemic) [Compound 42, [1-ethyl-5-methoxy-6-(1H-1,2,3,4-tetrazol-5-yl)-1H-imidazo[4,5-b]pyridin-2-yl](2-methylphenyl)phenylmethanol]: the IC50 in data set [1] and in data set [3] was 1 to 10 nM in each case. In data set [2], the MNT entry is recorded as “A”.

On to `Cc1nc2nc(C(O)(c3ccccc3F)c3ccccc3F)n(C)c2cc1-c1nnn[nH]1` [Compound 55, [1,5-dimethy-6-(1H-1,2,3,4-tetrazol-5-yl)-1H-imidazo[4,5-b]pyridin-2-yl]bis(2-fluorophenyl)methanol], for which the IC50 in data set [1] lay within 0.01 to 1 nM; in data set [3] it was 10 to 100 nM. Further, in data set [2], the MNT entry is on record as “A”.

Turning to `CCn1c(C(O)(c2ccc(OC(F)F)cc2)c2ccccc2F)nc2nc(OC)c(-c3nnn[nH]3)cc21` (racemic) [Compound 52, [4-(difluoromethoxy)phenyl][1-ethyl-5-methoxy-6-(1H-1,2,3,4-tetrazol-5-yl)-1H-imidazo[4,5-b]pyridin-2-yl](2-fluorophenyl)methanol], the IC50 in data set [1] and in data set [3] was 1 to 10 nM throughout. Besides, the MNT result in data set [2] is on record as “A”.

`CCn1c(C(O)(c2ccccc2F)c2ccccc2F)nc2ncc(-c3nnn[nH]3)cc21` [Compound 61, [1-ethyl-6-(1H-1,2,3,4-tetrazol-5-yl)-1H-imidazo[4,5-b]pyridin-2-yl]bis(2-fluorophenyl)methanol]: the IC50 in data set [1] was in the range of 10 to 100 nM; in data set [3], 100 to 10000 nM. In data set [2], the MNT entry is recorded as “A”.

Take `CCn1c(C(O)(c2ccsc2)c2ccsc2)nc2nc(OC)c(-c3nnn[nH]3)cc21` [Compound 29, [1-ethyl-5-methoxy-6-(1H-1,2,3,4-tetrazol-5-yl)-1H-imidazo[4,5-b]pyridin-2-yl]bis(thiophen-3-yl)methanol]: the IC50 lay in the range of 1 to 10 nM in data set [1] and 10 to 100 nM in data set [3]. In addition, in data set [2], the MNT result was “A”.

For the compound `CCn1c(C(O)(c2ccccc2)c2ccsc2)nc2nc(OC)c(-c3nnn[nH]3)cc21` (racemic) [Compound 30, [1-ethyl-5-methoxy-6-(1H-1,2,3,4-tetrazol-5-yl)-1H-imidazo[4,5-b]pyridin-2-yl](phenyl)(thiophen-3-yl)methanol], the values for the IC50 in data set [1] and in data set [3] were 1 to 10 nM and 10 to 100 nM, respectively. Further, in data set [2], the MNT result is “A”.

As for `CCc1c(C(O)(c2ccccc2)c2ccccn2)nc2cc(Cl)c(-c3nnn[nH]3)cn12` (single isomer, unassigned) [Compound 8, [7-chloro-3-ethyl-6-(1H-tetrazol-5-yl)imidazo[1,2-a]pyridin-2-yl]-phenyl-(2-pyridyl)methanol], the values for the IC50 in data set [1] and in data set [3] were 1 to 10 nM and 100 to 10000 nM, respectively. The MNT result in data set [2] is “A”.

Consider `CCn1c(C(O)(c2ccccn2)c2cccs2)nc2nc(OC)c(-c3nnn[nH]3)cc21` (racemic) [Compound 26, [1-ethyl-5-methoxy-6-(1H-1,2,3,4-tetrazol-5-yl)-1H-imidazo[4,5-b]pyridin-2-yl](pyridin-2-yl)(thiophen-2-yl)methanol], for which the IC50 in data set [1] was 10 to 100 nM; in data set [3], 1 to 10 nM. In addition, the MNT entry in data set [2] is “A”.

For the compound `CCn1c(C(O)(c2ccccc2)c2nccs2)nc2nc(OC)c(-c3nnn[nH]3)cc21` (single isomer, unassigned) [Compound 33, [1-ethyl-5-methoxy-6-(1H-1,2,3,4-tetrazol-5-yl)-1H-imidazo[4,5-b]pyridin-2-yl](phenyl)(1,3-thiazol-2-yl)methanol], the IC50 in data set [1] and in data set [3] was 10 to 100 nM in each case. Also, the MNT result in data set [2] was “A”.

`CCn1c(C(O)(c2ccccc2)c2cnn(C)c2)nc2nc(OC)c(-c3nnn[nH]3)cc21` (racemic) [Compound 36, [1-ethyl-5-methoxy-6-(1H-1,2,3,4-tetrazol-5-yl)-1H-imidazo[4,5-b]pyridin-2-yl](1-methyl-1H-pyrazol-4-yl)phenylmethanol]: the IC50 is 10 to 100 nM in data set [1] and 100 to 10000 nM in data set [3]. In data set [2], the MNT entry is listed as “A”.

Take `CCc1c(C(O)(c2ccccc2F)c2ccccc2F)nn2cc(Cl)c(-c3nnn[nH]3)cc12` [Compound 20, [6-Chloro-3-ethyl-5-(1H-tetrazol-5-yl)-pyrazolo[1,5-a]pyridin-2-yl]-bis-(2-fluoro-phenyl)-methanol]: the half-inhibitory concentration (IC50) in data set [1] is 1 to 10 nM; in data set [3] it was 10 to 100 nM. Besides, the MNT result in data set [2] was “A”.

Regarding `CCn1c(C(O)(c2ccccc2F)c2ccccc2F)nc2nc(F)c(-c3nnn[nH]3)cc21` [Compound 46, [1-ethyl-5-fluoro-6-(1H-1,2,3,4-tetrazol-5-yl)-1H-imidazo[4,5-b]pyridin-2-yl]bis(2-fluorophenyl)methanol], the IC50 in data set [1] and in data set [3] was 10 to 100 nM each time. Also, the MNT entry in data set [2] is “A”.

With `CCc1c(C(O)(c2ccccc2)c2ccccn2)nc2cc(OC)c(-c3nnn[nH]3)cn12` (single isomer, unassigned) [Compound 10, [3-Ethyl-7-methoxy-6-(1H-tetrazol-5-yl)-imidazo[1,2-a]pyridin-2-yl]-phenyl-pyridin-2-yl-methanol], the IC50 in data set [1] lay in the range of 10 to 100 nM; in data set [3], 100 to 10000 nM. The MNT entry in data set [2] was “A”.

For `CCc1c(C(O)(c2ccccc2)c2ccccc2)nn2cc(F)c(-c3nnn[nH]3)cc12` [Compound 23, [3-Ethyl-6-fluoro-5-(1H-tetrazol-5-yl)-pyrazolo[1,5-a]pyridin-2-yl]-diphenyl-methanol], the IC50 in data set [1] and in data set [3] was 10 to 100 nM throughout. For the same compound, in data set [2], the MNT entry is “A”.
